Reference: ChEMBL document CHEMBL4270495, “Oleanane-, ursane-, and quinone methide friedelane-type triterpenoid derivatives: Recent advances in cancer treatment” (Eur J Med Chem, 2017)

Assays:
Format in all cases: functional, cell-based
BGC-823 = assay: Cytotoxicity in human BGC823 cells assessed as reduction in cell viability incubated for 72 hrs by MTT assay; conditions: BGC-823, 72 h
HeLa = assay: Cytotoxicity in human HeLa cells assessed as reduction in cell viability incubated for 72 hrs by MTT assay
MCF7 = assay: Cytotoxicity in human MCF7 cells assessed as reduction in cell viability incubated for 24 hrs by MTT assay; conditions: MCF7, 24 h
TERT-RPE1 = assay: Cytotoxicity in human hTERT-RPE1 cells assessed as reduction in cell viability incubated for 24 hrs by MTT assay; conditions: RPE-1, 24 h
MDA-MB-231 = assay: Cytotoxicity in human MDA-MB-231 cells assessed as reduction in cell viability incubated for 24 hrs by MTT assay; conditions: MDA-MB-231, 24 h
HepG2 = assay: Cytotoxicity in human HepG2 cells assessed as reduction in cell viability incubated for 72 hrs by MTT assay; conditions: HepG2, 72 h
HT-29 = assay: Cytotoxicity in human HT-29 cells assessed as reduction in cell viability incubated for 72 hrs by MTT assay; conditions: HT-29, 72 h

C[C@H]1[C@H](C)CC[C@]2(C(=O)OCCBr)CC[C@]3(C)C(=CC[C@@H]4[C@@]5(C)CC[C@H](O)C(C)(C)[C@@H]5CC[C@]43C)[C@H]12
IC50 (BGC-823): 12.4 µM

CC(=O)OC[C@@]1(C)[C@@H]2CC[C@]3(C)[C@H](CC=C4[C@@H]5[C@@H](C)[C@H](C)CC[C@]5(C(=O)NO)CC[C@]43C)[C@@]2(C)C[C@@H](OC(C)=O)[C@@H]1OC(C)=O
IC50 (HeLa): 1.62 µM

CCOC(=O)/C=C/c1ccc(OC(=O)[C@@]2(C)CC[C@]3(C)CC[C@]4(C)C(=CC(=O)[C@@H]5[C@@]6(C)CC[C@H](OC(=O)[C@@H](N)CCSC)C(C)(C)[C@@H]6CC[C@]54C)[C@H]3C2)c(OC)c1
IC50 (MCF7): 8.62 µM
IC50 (TERT-RPE1): 16.3 µM
IC50 (MDA-MB-231): 5.36 µM

COC(=O)/C=C/c1ccc(OC)c(OC(=O)[C@@]2(C)CC[C@]3(C)CC[C@]4(C)C(=CC(=O)[C@@H]5[C@@]6(C)CC[C@H](OC(=O)[C@@H](N)CCSC)C(C)(C)[C@@H]6CC[C@]54C)[C@H]3C2)c1
IC50 (MCF7): 8.7 µM
IC50 (TERT-RPE1): 8.92 µM
IC50 (MDA-MB-231): 4.56 µM

Cc1nc(C)c(COC(=O)[C@]23CCC(C)(C)C[C@H]2C2=CC[C@@H]4[C@@]5(C)CC[C@H](OC(=O)[C@H](C)N)C(C)(C)[C@@H]5CC[C@@]4(C)[C@]2(C)CC3)nc1C
IC50 (BGC-823): 4.47 µM
IC50 (HepG2): 2.32 µM
IC50 (HeLa): 7.69 µM
IC50 (HT-29): 4.77 µM

C[C@H]1[C@H](C)CC[C@]2(C(=O)OCCCCN3CCCC3)CC[C@]3(C)C(=CC[C@@H]4[C@@]5(C)CC[C@H](O)C(C)(C)[C@@H]5CC[C@]43C)[C@H]12
IC50 (BGC-823): 7.2 µM

CCOC(=O)/C=C/c1ccc(OC)c(OC(=O)[C@@]2(C)CC[C@]3(C)CC[C@]4(C)C(=CC(=O)[C@@H]5[C@@]6(C)CC[C@H](OC(=O)[C@@H](N)CC[Se]C)C(C)(C)[C@@H]6CC[C@]54C)[C@H]3C2)c1
IC50 (MCF7): 6.93 µM
IC50 (TERT-RPE1): 10.1 µM
IC50 (MDA-MB-231): 3.27 µM

C[C@H]1[C@H](C)CC[C@]2(C(=O)OCCN3CCOCC3)CC[C@]3(C)C(=CC[C@@H]4[C@@]5(C)CC[C@H](O)C(C)(C)[C@@H]5CC[C@]43C)[C@H]12
IC50 (BGC-823): 8.8 µM

CCOC(=O)/C=C/c1ccc(OC(=O)[C@@]2(C)CC[C@]3(C)CC[C@]4(C)C(=CC(=O)[C@@H]5[C@@]6(C)CC[C@H](OC(=O)[C@@H](N)CCSC)C(C)(C)[C@@H]6CC[C@]54C)[C@H]3C2)cc1
IC50 (MCF7): 2.65 µM
IC50 (TERT-RPE1): 5.65 µM
IC50 (MDA-MB-231): 2.31 µM

COC(=O)/C=C/c1ccc(OC)c(OC(=O)[C@@]2(C)CC[C@]3(C)CC[C@]4(C)C(=CC(=O)[C@@H]5[C@@]6(C)CC[C@H](OC(=O)[C@@H](N)CC[Se]C)C(C)(C)[C@@H]6CC[C@]54C)[C@H]3C2)c1
IC50 (MCF7): 5.12 µM
IC50 (TERT-RPE1): 9.79 µM
IC50 (MDA-MB-231): 3.13 µM

C[C@H]1[C@H](C)CC[C@]2(C(=O)OCCCN3CCCC3)CC[C@]3(C)C(=CC[C@@H]4[C@@]5(C)CC[C@H](O)C(C)(C)[C@@H]5CC[C@]43C)[C@H]12
IC50 (BGC-823): 7.6 µM

COC(=O)/C=C/c1ccc(OC(=O)[C@@]2(C)CC[C@]3(C)CC[C@]4(C)C(=CC(=O)[C@@H]5[C@@]6(C)CC[C@H](OC(=O)[C@@H](N)CCSC)C(C)(C)[C@@H]6CC[C@]54C)[C@H]3C2)cc1
IC50 (MCF7): 7.24 µM
IC50 (TERT-RPE1): 8.48 µM
IC50 (MDA-MB-231): 6.43 µM

CCOC(=O)/C=C/c1ccc(OC(=O)[C@@]2(C)CC[C@]3(C)CC[C@]4(C)C(=CC(=O)[C@@H]5[C@@]6(C)CC[C@H](OC(=O)[C@@H](N)CC[Se]C)C(C)(C)[C@@H]6CC[C@]54C)[C@H]3C2)cc1
IC50 (MCF7): 2.42 µM
IC50 (TERT-RPE1): 7.08 µM
IC50 (MDA-MB-231): 1.86 µM

CCOC(=O)/C=C/c1cccc(OC(=O)[C@@]2(C)CC[C@]3(C)CC[C@]4(C)C(=CC(=O)[C@@H]5[C@@]6(C)CC[C@H](OC(=O)[C@@H](N)CCSC)C(C)(C)[C@@H]6CC[C@]54C)[C@H]3C2)c1
IC50 (MCF7): 5.79 µM
IC50 (TERT-RPE1): 6.63 µM
IC50 (MDA-MB-231): 1.92 µM

C[C@H]1[C@H](C)CC[C@]2(C(=O)OCCCCN3CCCCC3)CC[C@]3(C)C(=CC[C@@H]4[C@@]5(C)CC[C@H](O)C(C)(C)[C@@H]5CC[C@]43C)[C@H]12
IC50 (BGC-823): 5 µM

CC(=O)OC[C@@]1(C)[C@@H]2CC[C@]3(C)[C@H](CC=C4[C@@H]5[C@@H](C)[C@H](C)CC[C@]5(C(=O)N(C)O)CC[C@]43C)[C@@]2(C)C[C@@H](OC(C)=O)[C@@H]1OC(C)=O
IC50 (HeLa): 3.77 µM

COC(=O)/C=C/c1ccc(OC(=O)[C@@]2(C)CC[C@]3(C)CC[C@]4(C)C(=CC(=O)[C@@H]5[C@@]6(C)CC[C@H](OC(=O)[C@@H](N)CC[Se]C)C(C)(C)[C@@H]6CC[C@]54C)[C@H]3C2)c(OC)c1
IC50 (MCF7): 1.88 µM
IC50 (TERT-RPE1): 4.93 µM
IC50 (MDA-MB-231): 1.37 µM

Cc1nc(C)c(COC(=O)[C@]23CCC(C)(C)C[C@H]2C2=CC[C@@H]4[C@@]5(C)CC[C@H](OC(=O)[C@@H](N)CO)C(C)(C)[C@@H]5CC[C@@]4(C)[C@]2(C)CC3)nc1C
IC50 (BGC-823): 4.89 µM
IC50 (HepG2): 4.78 µM
IC50 (HeLa): 5.21 µM
IC50 (HT-29): 4.82 µM

COC(=O)/C=C/c1ccc(OC(=O)[C@@]2(C)CC[C@]3(C)CC[C@]4(C)C(=CC(=O)[C@@H]5[C@@]6(C)CC[C@H](OC(=O)[C@@H](N)CC[Se]C)C(C)(C)[C@@H]6CC[C@]54C)[C@H]3C2)cc1
IC50 (MCF7): 6.02 µM
IC50 (TERT-RPE1): 6.33 µM
IC50 (MDA-MB-231): 6.27 µM

COC(=O)/C=C/c1cccc(OC(=O)[C@@]2(C)CC[C@]3(C)CC[C@]4(C)C(=CC(=O)[C@@H]5[C@@]6(C)CC[C@H](OC(=O)[C@@H](N)CCSC)C(C)(C)[C@@H]6CC[C@]54C)[C@H]3C2)c1
IC50 (MCF7): 7.2 µM
IC50 (TERT-RPE1): 8.49 µM
IC50 (MDA-MB-231): 3.54 µM

Cc1nc(C)c(COC(=O)[C@]23CCC(C)(C)C[C@H]2C2=CC[C@@H]4[C@@]5(C)CC[C@H](OC(=O)[C@@H]6CCCN6)C(C)(C)[C@@H]5CC[C@@]4(C)[C@]2(C)CC3)nc1C
IC50 (BGC-823): 4.97 µM
IC50 (HepG2): 2.39 µM
IC50 (HeLa): 6.75 µM
IC50 (HT-29): 3.21 µM

C[C@H]1[C@H](C)CC[C@]2(C(=O)OCCCCN3CCOCC3)CC[C@]3(C)C(=CC[C@@H]4[C@@]5(C)CC[C@H](O)C(C)(C)[C@@H]5CC[C@]43C)[C@H]12
IC50 (BGC-823): 6.5 µM

C[C@H]1[C@H](C)CC[C@]2(C(=O)OCCCN3CCCCC3)CC[C@]3(C)C(=CC[C@@H]4[C@@]5(C)CC[C@H](O)C(C)(C)[C@@H]5CC[C@]43C)[C@H]12
IC50 (BGC-823): 7.2 µM

CCOC(=O)/C=C/c1ccc(OC(=O)[C@@]2(C)CC[C@]3(C)CC[C@]4(C)C(=CC(=O)[C@@H]5[C@@]6(C)CC[C@H](OC(=O)[C@@H](N)CC[Se]C)C(C)(C)[C@@H]6CC[C@]54C)[C@H]3C2)c(OC)c1
IC50 (MCF7): 8.45 µM
IC50 (TERT-RPE1): 12.3 µM
IC50 (MDA-MB-231): 3.49 µM

COC(=O)/C=C/c1ccc(OC(=O)[C@@]2(C)CC[C@]3(C)CC[C@]4(C)C(=CC(=O)[C@@H]5[C@@]6(C)CC[C@H](OC(=O)[C@@H](N)CCSC)C(C)(C)[C@@H]6CC[C@]54C)[C@H]3C2)c(OC)c1
IC50 (MCF7): 6 µM
IC50 (TERT-RPE1): 10.4 µM
IC50 (MDA-MB-231): 3.52 µM

CCOC(=O)/C=C/c1ccc(OC)c(OC(=O)[C@@]2(C)CC[C@]3(C)CC[C@]4(C)C(=CC(=O)[C@@H]5[C@@]6(C)CC[C@H](OC(=O)[C@@H](N)CCSC)C(C)(C)[C@@H]6CC[C@]54C)[C@H]3C2)c1
IC50 (MCF7): 8.81 µM
IC50 (TERT-RPE1): 12.5 µM
IC50 (MDA-MB-231): 4.67 µM

C[C@H]1[C@H](C)CC[C@]2(C(=O)OCCCN3CCOCC3)CC[C@]3(C)C(=CC[C@@H]4[C@@]5(C)CC[C@H](O)C(C)(C)[C@@H]5CC[C@]43C)[C@H]12
IC50 (BGC-823): 7.3 µM

CCOC(=O)/C=C/c1cccc(OC(=O)[C@@]2(C)CC[C@]3(C)CC[C@]4(C)C(=CC(=O)[C@@H]5[C@@]6(C)CC[C@H](OC(=O)[C@@H](N)CC[Se]C)C(C)(C)[C@@H]6CC[C@]54C)[C@H]3C2)c1
IC50 (MCF7): 2.57 µM
IC50 (TERT-RPE1): 3.7 µM
IC50 (MDA-MB-231): 1.53 µM

COC(=O)/C=C/c1cccc(OC(=O)[C@@]2(C)CC[C@]3(C)CC[C@]4(C)C(=CC(=O)[C@@H]5[C@@]6(C)CC[C@H](OC(=O)[C@@H](N)CC[Se]C)C(C)(C)[C@@H]6CC[C@]54C)[C@H]3C2)c1
IC50 (MCF7): 3.48 µM
IC50 (TERT-RPE1): 4.55 µM
IC50 (MDA-MB-231): 2.46 µM

C[C@H]1[C@H](C)CC[C@]2(C(=O)OCCN3CCCC3)CC[C@]3(C)C(=CC[C@@H]4[C@@]5(C)CC[C@H](O)C(C)(C)[C@@H]5CC[C@]43C)[C@H]12
IC50 (BGC-823): 4.5 µM

C[C@H]1[C@H](C)CC[C@]2(C(=O)OCCCCBr)CC[C@]3(C)C(=CC[C@@H]4[C@@]5(C)CC[C@H](O)C(C)(C)[C@@H]5CC[C@]43C)[C@H]12 [BROMOBUTYL-3BETA-HYDROXY-URS-12-EN-28-OATE]
IC50 (BGC-823): 10 µM

C[C@H]1[C@H](C)CC[C@]2(C(=O)OCCCBr)CC[C@]3(C)C(=CC[C@@H]4[C@@]5(C)CC[C@H](O)C(C)(C)[C@@H]5CC[C@]43C)[C@H]12 [BROMOPROPYL-3BETA-HYDROXY-URS-12-EN-28-OATE]
IC50 (BGC-823): 6.5 µM
